Source: ChEMBL document CHEMBL1132922, “Corticotropin releasing factor (CRF) receptor modulators: progress and opportunities for new therapeutic agents” (J Med Chem, 2000)
Values belong to the compound of their own block, whether it stands above or below them.

Key:
[1] = Inhibition of ovine CRF stimulated adenylate cyclase assay in CHO-p5 cells; format: functional, cell-based; settings: Ovis aries
[2] = biological target: T1, Corticotropin releasing factor receptor (Rattus norvegicus, UniProt P47866+P35353); experiment: Compound was tested for the inhibition of binding of the radioligand, [125 I-Tyr0]-CRF to rat cerebral cortex membrane; format: tissue-based
[3] = species: Rattus norvegicus; experiment: effective concentration used to stimulate the secretion of adenocorticotropic hormone(ACTH) in primary cultures of rat pituitary cells; format: functional, cell-based; settings: Pituitary gland cell
[4] = biological target: T2, Corticotropin-releasing factor receptor 1 (Homo sapiens, UniProt P34998); experiment: Antagonist potency in hCRF1 stimulated adenylate cyclase assay; format: functional
T2 sequence (P34998 whole entry): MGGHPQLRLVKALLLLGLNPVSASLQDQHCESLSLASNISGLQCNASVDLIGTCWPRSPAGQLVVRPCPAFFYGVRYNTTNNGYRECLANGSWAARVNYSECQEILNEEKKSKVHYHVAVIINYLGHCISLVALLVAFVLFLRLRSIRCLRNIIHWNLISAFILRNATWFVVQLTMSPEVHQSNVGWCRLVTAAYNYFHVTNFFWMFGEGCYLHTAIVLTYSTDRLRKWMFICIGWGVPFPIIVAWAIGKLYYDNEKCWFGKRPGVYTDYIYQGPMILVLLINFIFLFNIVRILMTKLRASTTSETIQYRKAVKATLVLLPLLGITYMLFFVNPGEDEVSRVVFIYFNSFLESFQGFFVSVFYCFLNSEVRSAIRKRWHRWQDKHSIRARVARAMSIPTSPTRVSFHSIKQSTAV

[5] = biological target: T3, Corticotropin-releasing factor receptor 2 (Homo sapiens, UniProt Q13324); experiment: Compound was tested for the binding affinity to human corticotropin releasing factor receptor (hCRF2)
T3 sequence (Q13324 whole entry): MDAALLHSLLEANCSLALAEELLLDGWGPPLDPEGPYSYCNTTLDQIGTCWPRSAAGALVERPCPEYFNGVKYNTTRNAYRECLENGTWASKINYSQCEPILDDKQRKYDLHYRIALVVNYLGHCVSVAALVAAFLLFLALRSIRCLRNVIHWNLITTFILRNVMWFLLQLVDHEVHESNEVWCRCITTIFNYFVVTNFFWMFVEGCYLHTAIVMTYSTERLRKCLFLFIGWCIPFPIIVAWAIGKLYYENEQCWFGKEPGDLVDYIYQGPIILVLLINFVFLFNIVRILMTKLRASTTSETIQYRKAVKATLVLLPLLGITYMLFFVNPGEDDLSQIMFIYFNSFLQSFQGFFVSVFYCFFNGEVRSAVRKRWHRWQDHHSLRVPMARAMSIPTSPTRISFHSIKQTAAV

[6] = biological target: T2, Corticotropin-releasing factor receptor 1; experiment: Compound was tested for the binding affinity to human corticotropin releasing factor 1 (hCRF1) receptors.
[7] = Compound was tested for the binding affinity to mouse Corticotropin releasing factor receptor 2 beta
[8] = biological target: T1, Corticotropin releasing factor receptor; experiment: Compound was tested for the binding affinity to rat ccorticotropin releasing factor receptor; format: protein assay
[9] = species: Rattus norvegicus; experiment: Percent control value is reported, after studying ability to inhibit CRF-stimulated release of ACTH in rats; format: functional; parameters: scale not given: the % may be the effect or the level left
[10] = Oral bioavailability is reported, after administering 1 mg/kg (intravenously and orally ) to dogs; format: ADME, organism-based, Canis lupus familiaris; settings: dog, in vivo
[11] = biological target: T2, Corticotropin-releasing factor receptor 1; experiment: Inhibition of corticotropin releasing factor receptor mediated increase in cAMP level using HEK293 cells expressing h-CRF1 receptor; format: cell-based
[12] = biological target: T2, Corticotropin-releasing factor receptor 1; experiment: Compound was tested for the binding affinity to human corticotropin releasing factor receptor
[13] = species: Rattus norvegicus; experiment: 50% inhibitory concentration to antagonize ACTH secretion; format: functional; settings: read-out: ID50 (the source's name)
[14] = tested on: Rattus norvegicus; experiment: Dose (ip) that completely reverses the r/h-CRF-enhanced acoustic startle of rats; format: functional
[15] = Plasma administered 1 mg/kg intravenously in rat.; format: ADME, organism-based; parameters: dose 1 mg/kg, route intravenous; settings: iv
[16] = Half life period when administered 1 mg/kg intravenously in rat; format: ADME, organism-based; parameters: dose 1 mg/kg, route intravenous; settings: in vivo, iv
[17] = biological target: T1, Corticotropin releasing factor receptor; experiment: Compound was tested for the binding affinity to rat corticotropin releasing factor receptor; format: protein assay
[18] = species: Rattus norvegicus; experiment: 50% inhibitory concentration to antagonize Corticotropin releasing factor (CRF) stimulated adenylate cyclase; format: functional
[19] = biological target: T1, Corticotropin releasing factor receptor; experiment: Inhibition of binding of the radioligand, [125 I-Tyr0]-CRF to rat cerebral cortex membrane; format: tissue-based
[20] = biological target: T2, Corticotropin-releasing factor receptor 1; experiment: Binding affinity of the receptor corticotropin releasing factor receptor with peptidic agonists
[21] = biological target: T3, Corticotropin-releasing factor receptor 2; experiment: Binding affinity of the receptor h-CRF2-alpha with peptidic agonists
[22] = biological target: T2, Corticotropin-releasing factor receptor 1; experiment: Activity of peptidic agonists on corticotropin releasing factor receptor using agonist-stimulated adenylate cyclase assay; format: functional
[23] = biological target: T3, Corticotropin-releasing factor receptor 2; experiment: Activity of peptidic agonists on h-CRF2-alpha receptor using agonist-stimulated adenylate cyclase assay; format: functional

Compound: CCN(c1nc(C)cc(N2CC=C(c3cccc(F)c3)CC2)n1)c1ccc(C(C)C)cc1Br
- IC50 [2]: 22.1 nM

Compound: CO[C@@]12C(COC(N)=O)C3=C(C(=O)C(C)=C(NCCc4ccco4)C3=O)N1CC1NC12 (stereo partly specified)
- Ki [7]: 20 nM
- Ki [8]: 110 nM
- Control [9]: 50%

Compound: COCC(COC)n1nnc2c(Nc3c(C)cc(C)cc3Cl)nc(C)cc21.CS(=O)(=O)O
- bioavailability [10]: 59%
- IC50 [11]: 75 nM
- Ki [12]: 3.3 nM

Compound: CCCCN(CC)c1nc(C)nc2c1c(C)cn2-c1c(C)cc(C)cc1C.Cl
- ED50 [13]: 13 mg/kg
- Dose [14]: 17.8 mg/kg

Compound: COCCN(CCOC)c1nc(C)nc2c1nnn2-c1ccc(C(C)C)cc1Br
- clearance [15]: 50 mL/min/kg
- half-life [16]: 7.6 h

Compound: CCCCN(CC)c1nc(C)nc2c1c(C)c(C)n2-c1c(C)cc(C)cc1C [ANTALARMIN]
- Ki [17]: 1 nM

Further lines, results first:

- IC50 [1]: 357 nM
Compound: CCCCN(CC)c1cc(C)nc2c(-c3ccc(Cl)cc3Cl)c(C)nn12

- EC50 [3]: 0.2 nM
Compound: CC[C@H](C)[C@H](NC(=O)[C@@H](NC(=O)[C@H](CCC(=O)O)NC(=O)[C@H](CCSC)NC(=O)[C@H](CC(C)C)NC(=O)[C@H](CCCCN)NC(=O)[C@H](CCCN=C(N)N)NC(=O)[C@H](CC(N)=O)NC(=O)[C@H](CO)NC(=O)[C@H](Cc1c[nH]cn1)NC(=O)[C@H](C)NC(=O)[C@H](CCC(N)=O)NC(=O)[C@H](CCC(N)=O)NC(=O)[C@H](C)NC(=O)[C@H](CC(C)C)NC(=O)[C@H](CCC(N)=O)NC(=O)[C@H](CCC(=O)O)NC(=O)[C@H](C)NC(=O)[C@H](CCCN=C(N)N)NC(=O)[C@H](C)NC(=O)[C@H](CCSC)NC(=O)[C@H](CCC(=O)O)NC(=O)[C@H](CC(C)C)NC(=O)[C@@H](NC(=O)[C@H](CCC(=O)O)NC(=O)[C@H](CCCN=C(N)N)NC(=O)[C@H](CC(C)C)NC(=O)[C@H](CC(C)C)NC(=O)[C@H](Cc1c[nH]cn1)NC(=O)[C@H](Cc1ccccc1)NC(=O)[C@@H](NC(=O)[C@H](CC(C)C)NC(=O)[C@H](CC(=O)O)NC(=O)[C@H](CC(C)C)NC(=O)[C@H](CO)NC(=O)[C@@H](NC(=O)[C@@H]1CCCN1C(=O)[C@@H]1CCCN1C(=O)[C@H](CCC(=O)O)NC(=O)[C@H](CCC(=O)O)NC(=O)[C@@H](N)CO)[C@@H](C)CC)[C@@H](C)O)C(C)C)[C@@H](C)CC)C(N)=O

- EC50 [4]: 142 nM
- Ki [5]: > 10000 nM
- Ki [6]: 2.8 nM
Compound: CCCN(CCC)c1cc(C)nc2c(-c3ccc(OC)cc3OC)c(C)nn12

- IC50 [2]: 12.7 nM
Compound: CCN(c1nc(C)cc(N2CC=C(c3cccc(F)c3)CC2)n1)c1ccc(C(C)C)cc1SC

- IC50 [2]: 80 nM
Compound: CCCN(c1nc(-c2ccc(Cl)cc2Cl)c(C)s1)c1cccc2ncccc12

- Ki [6]: 1.3 nM
Compound: CCC(CC)n1nnc2c(N3CCc4cc(Cl)cc(Cl)c43)nc(C)cc21

- IC50 [18]: 2900 nM
- IC50 [19]: 13700 nM
Compound: CC(=O)Sc1c(C)n(C)n(-c2ccccc2)c1=O

- Ki [20]: 1.07 nM
- Ki [21]: 1.26 nM
- EC50 [22]: 6.3 nM
- EC50 [23]: 1.5 nM
Compound: H-NDDPPISIDLTFHLLRNMIEMARIENEREQAGLNRKYLDEV-NH2
